Laboratory results: patent publication US10906915B2, “Substituted pyrazoloazepin-4-ones and their use as phosphodiesterase inhibitors” (LEO Pharma A/S, priority 2016, dated 2021)

target: human PDE4D catalytic domain (UniProt no. Q08499) (Homo sapiens (Human), UniProt Q08499); experiment: PDE4 assay (TR-FRET, FAM-cAMP cleavage); assay type: biochemical; settings: human PDE4D catalytic domain; molar concentration giving 50% inhibition of substrate cleavage; read-out: PDE4 IC50 range
Method: The human PDE4D catalytic domain (UniProt no. Q08499 [[…]]) was incubated with a mixture of non-labelled cAMP (cyclic adenosine monophosphate) and fluorescein amidite (FAM) conjugated cAMP and titrated test or reference compound. Following brief incubation the enzymatic reaction was stopped by addition of binding buffer containing nanoparticles with immobilized trivalent metal ions capable of binding 1) AMP phospho groups and 2) terbium (Tb) donor fluorophores. Subsequent excitation of the Tb donor triggers time-resolved FRET to adjacent FAM acceptor molecules resulting in light emission. In the presence of a PDE4 inhibitor, AMP generation was reduced resulting in a lower fluorescence signal. The cAMP phosphodiester is not bound by the detection system.
The results were calculated as the molar concentrations resulting in 50% inhibition of the substrate cleavage compared to controls samples, and are expressed as a range of IC50 (nM).

Sequence of human PDE4D catalytic domain (Q08499 380-740 limits assumed): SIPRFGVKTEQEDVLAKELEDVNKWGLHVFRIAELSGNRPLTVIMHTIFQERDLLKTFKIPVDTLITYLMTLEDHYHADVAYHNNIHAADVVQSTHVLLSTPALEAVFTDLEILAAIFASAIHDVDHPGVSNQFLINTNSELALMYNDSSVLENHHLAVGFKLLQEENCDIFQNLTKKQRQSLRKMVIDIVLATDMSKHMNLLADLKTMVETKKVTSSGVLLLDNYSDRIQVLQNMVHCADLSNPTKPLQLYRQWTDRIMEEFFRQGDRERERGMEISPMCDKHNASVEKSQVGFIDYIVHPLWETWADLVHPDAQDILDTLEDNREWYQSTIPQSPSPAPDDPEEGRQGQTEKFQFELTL

Compound	IC50 [nM]
CCc1nn(CCCOC(=O)c2cc(C(F)(F)F)ccc2F)c2c1C(=O)NCC1(CCOCC1)C2 [Example 112, 3-(3-ethyl-4-oxo-spiro[6,8-dihydro-5H-pyrazolo[4,3-c]azepine-7,4′-tetrahydropyran]-1-yl)propyl 2-fluoro-5-(trifluoromethyl)benzoate]	< 100
CCc1nn(CCCOC(=O)c2ccc3c(c2)OCO3)c2c1C(=O)NCC1(CCOCC1)C2 [Example 57, 3-(3-ethyl-4-oxo-spiro[6,8-dihydro-5H-pyrazolo[4,3-c]azepine-7,4′-tetrahydropyran]-1-yl)propyl 1,3-benzodioxole-5-carboxylate]	< 100
CCc1nn(C[C@@H](C)COC(=O)c2ccc(OC)c(C)c2)c2c1C(=O)NCC1(CCOCC1)C2 [Example 186, [(2R)-3-(3-ethyl-4-oxo-spiro[6,8-dihydro-5H-pyrazolo[4,3-c]azepine-7,4′-tetrahydropyran]-1-yl)-2-methyl-propyl] 4-methoxy-3-methyl-benzoate]	< 100
CCc1nn(CCCOC(=O)c2cccc(C#N)c2)c2c1C(=O)NCC1(CCOCC1)C2 [Example 23, 3-(3-ethyl-4-oxo-spiro[6,8-dihydro-5H-pyrazolo[4,3-c]azepine-7,4′-tetrahydropyran]-1-yl)propyl 3-cyanobenzoate]	< 100
CCc1nn(CCCOC(=O)CCOC)c2c1C(=O)NCC1(CCOCC1)C2 [Example 8, 3-(3-ethyl-4-oxo-spiro[6,8-dihydro-5H-pyrazolo[4,3-c]azepine-7,4′-tetrahydropyran]-1-yl)propyl 3-methoxypropanoate]	> 500
CCc1nn(C[C@@H](C)COC(=O)c2ccc(Cl)cc2)c2c1C(=O)NCC1(CCOCC1)C2 [Example 175, [(2R)-3-(3-ethyl-4-oxo-spiro[6,8-dihydro-5H-pyrazolo[4,3-c]azepine-7,4′-tetrahydropyran]-1-yl)-2-methyl-propyl] 4-chlorobenzoate]	< 100
CCc1nn(C[C@@H](C)COC(=O)c2ccc(Cl)cc2OC)c2c1C(=O)NCC1(CCOCC1)C2 [Example 211, [(2R)-3-(3-ethyl-4-oxo-spiro[6,8-dihydro-5H-pyrazolo[4,3-c]azepine-7,4′-tetrahydropyran]-1-yl)-2-methyl-propyl] 4-chloro-2-methoxy-benzoate]	< 100
CCc1nn(C[C@@H](C)COC(=O)c2cc(OC)ccc2C(F)(F)F)c2c1C(=O)NCC1(CCOCC1)C2 [Example 231, [(2R)-3-(3-ethyl-4-oxo-spiro[6,8-dihydro-5H-pyrazolo[4,3-c]azepine-7,4′-tetrahydropyran]-1-yl)-2-methyl-propyl] 5-methoxy-2-(trifluoromethyl)benzoate]	< 100
CCc1nn(CCCOC(=O)c2ccc(F)cc2OC)c2c1C(=O)NCC1(CCOCC1)C2 [Example 71, 3-(3-ethyl-4-oxo-spiro[6,8-dihydro-5H-pyrazolo[4,3-c]azepine-7,4′-tetrahydropyran]-1-yl)propyl 4-fluoro-2-methoxy-benzoate]	< 100
CCc1nn(C[C@@H](C)COC(=O)c2c(C)cccc2F)c2c1C(=O)NCC1(CCOCC1)C2 [Example 174, [(2R)-3-(3-ethyl-4-oxo-spiro[6,8-dihydro-5H-pyrazolo[4,3-c]azepine-7,4′-tetrahydropyran]-1-yl)-2-methyl-propyl] 2-fluoro-6-methyl-benzoate]	< 100
CCc1nn(C[C@@H](C)COC(=O)c2cccc(S(=O)(=O)N3CCN(C(C)=O)CC3)c2)c2c1C(=O)NCC1(CCOCC1)C2 [Example 251, [(2R)-3-(3-ethyl-4-oxo-spiro[6,8-dihydro-5H-pyrazolo[4,3-c]azepine-7,4′-tetrahydropyran]-1-yl)-2-methyl-propyl] 3-(4-acetylpiperazin-1-yl)sulfonylbenzoate]	< 100
CCc1nn(CCCOC(=O)c2ccc(F)c(C#N)c2)c2c1C(=O)NCC1(CCOCC1)C2 [Example 55, 3-(3-ethyl-4-oxo-spiro[6,8-dihydro-5H-pyrazolo[4,3-c]azepine-7,4′-tetrahydropyran]-1-yl)propyl 3-cyano-4-fluoro-benzoate]	< 100
CCc1nn(C[C@@H](C)COC(=O)c2cccc(Cl)c2F)c2c1C(=O)NCC1(CCOCC1)C2 [Example 198, [(2R)-3-(3-ethyl-4-oxo-spiro[6,8-dihydro-5H-pyrazolo[4,3-c]azepine-7,4′-tetrahydropyran]-1-yl)-2-methyl-propyl] 3-chloro-2-fluoro-benzoate]	< 100
CCc1nn(C[C@@H](C)COC(=O)c2ccc(C(=O)NC)cc2)c2c1C(=O)NCC1(CCOCC1)C2 [Example 253, [(2R)-3-(3-ethyl-4-oxo-spiro[6,8-dihydro-5H-pyrazolo[4,3-c]azepine-7,4′-tetrahydropyran]-1-yl)-2-methyl-propyl] 4-(methylcarbamoyl)benzoate]	< 100
CCc1nn(CCCOC(=O)c2ccc(C(F)F)cc2)c2c1C(=O)NCC1(CCOCC1)C2 [Example 76, 3-(3-ethyl-4-oxo-spiro[6,8-dihydro-5H-pyrazolo[4,3-c]azepine-7,4′-tetrahydropyran]-1-yl)propyl 4-(difluoromethyl)benzoate]	< 100
CCc1nn(CCCOC(=O)c2cccc(S(=O)(=O)NC)c2)c2c1C(=O)NCC1(CCOCC1)C2 [Example 116, 3-(3-ethyl-4-oxo-spiro[6,8-dihydro-5H-pyrazolo[4,3-c]azepine-7,4′-tetrahydropyran]-1-yl)propyl 3-(methylsulfamoyl) benzoate]	< 100
CCc1nn(CCCOC(=O)c2ccc(S(C)(=O)=O)cc2)c2c1C(=O)NCC1(CCOCC1)C2 [Example 98, 3-(3-ethyl-4-oxo-spiro[6,8-dihydro-5H-pyrazolo[4,3-c]azepine-7,4′-tetrahydropyran]-1-yl)propyl 4-methylsulfonylbenzoate]	< 100
CCc1nn(CCCOC(=O)c2ccc(C(C)=O)cc2)c2c1C(=O)NCC1(CCOCC1)C2 [Example 50, 3-(3-ethyl-4-oxo-spiro[6,8-dihydro-5H-pyrazolo[4,3-c]azepine-7,4′-tetrahydropyran]-1-yl)propyl 4-acetylbenzoate]	< 100
CCc1nn(CCCOC(=O)c2cc(F)cc(Cl)c2)c2c1C(=O)NCC1(CCOCC1)C2 [Example 79, 3-(3-ethyl-4-oxo-spiro[6,8-dihydro-5H-pyrazolo[4,3-c]azepine-7,4′-tetrahydropyran]-1-yl)propyl 3-chloro-5-fluoro-benzoate]	< 100
CCc1nn(C[C@@H](C)COC(=O)c2ccc(OC)c(F)c2)c2c1C(=O)NCC1(CCOCC1)C2 [Example 188, [(2R)-3-(3-ethyl-4-oxo-spiro[6,8-dihydro-5H-pyrazolo[4,3-c]azepine-7,4′-tetrahydropyran]-1-yl)-2-methyl-propyl] 3-fluoro-4-methoxy-benzoate]	< 100
CCc1nn(CCCOC(=O)c2cc(OC)ccc2Cl)c2c1C(=O)NCC1(CCOCC1)C2 [Example 90, 3-(3-ethyl-4-oxo-spiro[6,8-dihydro-5H-pyrazolo[4,3-c]azepine-7,4′-tetrahydropyran]-1-yl)propyl 2-chloro-5-methoxy-benzoate]	< 100

same assay, conditions: read-out: PDE4 IC50 range

Compound	IC50 [nM]
CCc1nn(CC(C)(C)COC(=O)c2cccc(C#N)c2)c2c1C(=O)NCC1(CCOCC1)C2 [Example 287, [3-(3-ethyl-4-oxo-spiro[6,8-dihydro-5H-pyrazolo[4,3-c]azepine-7,4′-tetrahydropyran]-1-yl)-2,2-dimethyl-propyl] 3-cyanobenzoate]	< 100
CCc1nn(C[C@@H](C)COC(=O)c2cccc(C(=O)NC(C)C)c2)c2c1C(=O)NCC1(CCOCC1)C2 [Example 267, [(2R)-3-(3-ethyl-4-oxo-spiro[6,8-dihydro-5H-pyrazolo[4,3-c]azepine-7,4′-tetrahydropyran]-1-yl)-2-methyl-propyl] 3-(isopropylcarbamoyl)benzoate]	< 100
CCc1nn(CC(C)(C)COC(=O)c2cccc(S(=O)(=O)NC)c2)c2c1C(=O)NCC1(CCOCC1)C2 [Example 313, [3-(3-ethyl-4-oxo-spiro[6,8-dihydro-5H-pyrazolo[4,3-c]azepine-7,4′-tetrahydropyran]-1-yl)-2,2-dimethyl-propyl] 3-(methylsulfamoyl)benzoate]	< 100
CCc1nn(C[C@H](C)COC(=O)c2ccccc2)c2c1C(=O)NCC1(CCOCC1)C2 [Example 274, [(2S)-3-(3-ethyl-4-oxo-spiro[6,8-dihydro-5H-pyrazolo[4,3-c]azepine-7,4′-tetrahydropyran]-1-yl)-2-methyl-propyl] benzoate]	< 100
CCc1nn(CCCCOC(=O)c2ccc(S(=O)(=O)N3CCCC3)cc2)c2c1C(=O)NCC1(CCOCC1)C2 [Example 377, 4-(3-ethyl-4-oxo-spiro[6,8-dihydro-5H-pyrazolo[4,3-c]azepme-7,4′-tetrahydropyran]-1-yl)butyl 4-pyrrolidin-1-ylsulfonylbenzoate]	100 to 500
CCc1nn(CC2(COC(=O)c3cccc(OC)c3)CC2)c2c1C(=O)NCC1(CCOCC1)C2 [Example 354, [1-[(3-ethyl-4-oxo-spiro[6,8-dihydro-5H-pyrazolo[4,3-c]azepine-7,4′-tetrahydropyran]-1-yl)methyl]cyclopropyl]methyl 3-methoxybenzoate]	< 100
CCc1nn(CCCCOC(=O)c2ccccc2)c2c1C(=O)NCC1(CCOCC1)C2 [Example 363, 4-(3-ethyl-4-oxo-spiro[6,8-dihydro-5H-pyrazolo[4,3-c]azepine-7,4′-tetrahydropyran]-1-yl)butyl benzoate]	< 100
